Read-outs that look alike come from different tables or passages of the source.
How the values were obtained:
[1] = biological target: T1, GluA2 (Rattus norvegicus, UniProt P19491); assay: Whole-cell patch clamp recordings of homomeric GluA2 AMPA receptor currents and kinetics in transfected HEK293t cells; format: cell-based; conditions: for Amplitude (peak whole-cell current in presence of compound): 16 µM compound co-applied with agonist, HEK293t, −60 mV, pH 7.4, 22 °C; for Amplitude (peak whole-cell current in presence of compound) / A/AI (amplitude ratio, glutamate alone / with compound) / t deact (weighted deactivation time constant) / t des (weighted desensitization time constant) / Amplitude, applying glutamate alone after compound: mean ± SD; for Amplitude (peak whole-cell current in presence of compound) / A/AI (amplitude ratio, glutamate alone / with compound) / Amplitude, applying glutamate alone after compound: n = 10; for A/AI (amplitude ratio, glutamate alone / with compound): 16 µM compound; for t deact (weighted deactivation time constant): 10 mM glutamate for 1 ms; for t deact (weighted deactivation time constant) / t des (weighted desensitization time constant): with compound; for t des (weighted desensitization time constant): 10 mM glutamate for 500 ms; for Amplitude, applying glutamate alone after compound: glutamate alone after the compound; for Effect on deactivation kinetics (τdeac), in words / Effect on desensitization kinetics (τdes), in words: versus glutamate alone, one-way ANOVA
T1 construct: expressed in transfected cells; host or cells: HEK293T (HEK293) cells, transient co-transfection with a separate EGFP vector
T1 sequence (P19491 22-883 isoform P19491-2 limits assumed): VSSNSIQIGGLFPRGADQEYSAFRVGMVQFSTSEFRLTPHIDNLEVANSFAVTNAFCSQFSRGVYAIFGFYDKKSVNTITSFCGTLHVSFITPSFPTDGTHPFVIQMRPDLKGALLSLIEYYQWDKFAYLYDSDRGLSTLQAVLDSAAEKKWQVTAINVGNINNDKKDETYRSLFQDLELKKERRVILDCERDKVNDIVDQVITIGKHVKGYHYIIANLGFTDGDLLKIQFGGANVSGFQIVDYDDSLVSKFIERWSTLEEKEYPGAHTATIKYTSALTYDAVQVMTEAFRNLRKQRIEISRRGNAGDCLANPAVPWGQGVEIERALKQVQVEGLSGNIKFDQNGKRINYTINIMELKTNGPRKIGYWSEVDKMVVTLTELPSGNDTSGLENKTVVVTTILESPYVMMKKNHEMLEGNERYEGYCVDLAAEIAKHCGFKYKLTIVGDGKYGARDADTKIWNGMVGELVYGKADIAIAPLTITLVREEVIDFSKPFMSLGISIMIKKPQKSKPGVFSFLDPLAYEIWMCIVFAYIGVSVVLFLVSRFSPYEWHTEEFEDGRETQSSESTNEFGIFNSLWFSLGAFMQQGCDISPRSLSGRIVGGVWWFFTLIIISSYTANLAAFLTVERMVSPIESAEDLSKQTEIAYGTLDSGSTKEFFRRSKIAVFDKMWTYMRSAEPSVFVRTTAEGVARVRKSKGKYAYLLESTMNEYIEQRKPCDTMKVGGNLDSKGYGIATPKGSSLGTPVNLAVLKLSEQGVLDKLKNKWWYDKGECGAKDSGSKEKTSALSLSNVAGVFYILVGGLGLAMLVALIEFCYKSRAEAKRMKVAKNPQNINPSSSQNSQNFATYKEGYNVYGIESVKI
Description: (§1) The AMPA receptor subunits utilized in this study were of the flip isoform. The flip variant of the GluA2 subunit was originally provided by S. F. Heinemann (Salk Institute, La Jolla, CA, USA) in a pBlueScript plasmid. This plasmid was subsequently sub-cloned into a pRK vector to enable expression in HEK293 cells, which were sourced from Sigma, Germany. Additionally, the unedited version of GluA2 (R607Qjj, flip isoform) and enhanced green fluorescent protein (EGFP), both contained in pRK5 vectors, were generously supplied by P. H. Seeburg (Max Planck Institute for Medical Research, Heidelberg, Germany). Chemical-mediated ways induced transfection. GluA2 homomers were expressed into HEK293 cells by the co-transfection of 1 μg GluA2 plasmid with an equal amount of GFP expression vectors (1:1 ratio) into the cells. In addition, co-transfection was conducted for heteromeric GluA2/3 subunits at a ratio of 1:1.2 for optimum expression. For post-transfection experiments, cells were plated in 10% fetal calf serum and antibiotics in DMEM in Petri plates. These cultures were maintained under carefully controlled conditions—37 °C and 5% CO2 within a humidified incubator. The selection of cells for recordings was based on fluorescence intensity. Highly GFP-positive cells were identified and isolated for further analysis, ensuring precise targeting of transfected populations.
(§2) Whole-cell patch clamp recordings were performed on HEK293t cells 36–48 h after transfection. Experiments were conducted at 22 °C, maintaining a holding potential of −60 mV, using an Integrated Patch Amplifier (IPA) from Sutter Instruments (Novato, CA, USA). Data acquisition was managed with SutterPatch Software v. 1.1.1 (Sutter Instruments), employing a sampling rate of 10 kHz and setting the low-pass filter at 2 kHz. […] The external solution contained 150 mM NaCl, 2.8 mM KCl, 0.5 mM MgCl2, 2 mM CaCl2, and 10 mM HEPES, adjusted to a pH of 7.4 using NaOH. The internal pipette solution was composed of 110 mM CsF, 30 mM CsCl, 4 mM NaCl, 0.5 mM CaCl2, 10 mM trypsin-EDTA solution B (0.25%), 0.05% EDTA, and 10 mM HEPES, with the pH adjusted to 7.2 using CsOH.
(§3) A dual-barrel glass pipette (theta tube) was employed for the rapid delivery of glutamate and other solutions. The theta tube was attached to a high-speed piezoelectric solution exchange system (Automate Scientific, Berkeley, CA, USA). To assess the efficiency of solution exchange, open-tip potentials were measured by applying solutions with different ionic compositions after the patch was expelled from the pipette. The time required for a 10–90% change in the solution was generally less than […].
(§4) Data analysis was performed with Igor Pro8.04 software (Wave Metrics, Inc., Portland, OR, USA). AMPA receptor deactivation and desensitization kinetics were measured by applying 10 mM glutamate for 1 ms and 500 ms, respectively. The currents from the AMPA receptor were fitted to a double-exponential model to quantify deactivation and desensitization time constants measured from the double-exponential fits. The weighted tau (τw) is calculated as: τw = (τf × af) + (τs × as), where τf and τs are the time constants of fast and slow exponential components and af and as represent their relative amplitudes.
(§5) Data are presented as the mean ± standard deviation (SD). The total number of HEK293 cells engaged was n = 10. The experimental groups were compared to the wild type using a one-way analysis of variance (ANOVA). Statistical significance was assessed using p values: p < 0.05 (*) indicated significance, p < 0.01 (**) indicated high significance, and p < 0.001 (***) indicated very high significance. The value “ns” indicates non-significance. Concentration–response relationships were modeled using the Hill equation with the resulting combined plots via GraphPad Prism software (version 6.01, GraphPad Software). The data presented are the means from 3–4 experimental replicates. […]

[2] = biological target: T2, GluA2/3 (UniProt P19491+P42263); assay: Whole-cell patch clamp recordings of heteromeric GluA2/3 AMPA receptor currents and kinetics in transfected HEK293t cells; format: cell-based; conditions: for Amplitude (peak whole-cell current in presence of compound): 16 µM compound co-applied with agonist, HEK293t, −60 mV, pH 7.4, 22 °C; for Amplitude (peak whole-cell current in presence of compound) / A/AI (amplitude ratio, glutamate alone / with compound) / t deact (weighted deactivation time constant) / t des (weighted desensitization time constant) / Amplitude, applying glutamate alone after compound: mean ± SD; for Amplitude (peak whole-cell current in presence of compound) / A/AI (amplitude ratio, glutamate alone / with compound) / Amplitude, applying glutamate alone after compound: n = 10; for A/AI (amplitude ratio, glutamate alone / with compound): 16 µM compound; for t deact (weighted deactivation time constant): 10 mM glutamate for 1 ms; for t deact (weighted deactivation time constant) / t des (weighted desensitization time constant): with compound; for t des (weighted desensitization time constant): 10 mM glutamate for 500 ms; for Amplitude, applying glutamate alone after compound: glutamate alone after the compound; for Effect on deactivation kinetics (τdeac), in words / Effect on desensitization kinetics (τdes), in words: versus glutamate alone, one-way ANOVA
T2 construct: expressed in transfected cells; host or cells: HEK293T (HEK293) cells, transient co-transfection
T2 sequence (P19491 22-883 isoform P19491-2 limits assumed): as above
T2 sequence (P42263 29-894 isoform P42263-2 limits assumed): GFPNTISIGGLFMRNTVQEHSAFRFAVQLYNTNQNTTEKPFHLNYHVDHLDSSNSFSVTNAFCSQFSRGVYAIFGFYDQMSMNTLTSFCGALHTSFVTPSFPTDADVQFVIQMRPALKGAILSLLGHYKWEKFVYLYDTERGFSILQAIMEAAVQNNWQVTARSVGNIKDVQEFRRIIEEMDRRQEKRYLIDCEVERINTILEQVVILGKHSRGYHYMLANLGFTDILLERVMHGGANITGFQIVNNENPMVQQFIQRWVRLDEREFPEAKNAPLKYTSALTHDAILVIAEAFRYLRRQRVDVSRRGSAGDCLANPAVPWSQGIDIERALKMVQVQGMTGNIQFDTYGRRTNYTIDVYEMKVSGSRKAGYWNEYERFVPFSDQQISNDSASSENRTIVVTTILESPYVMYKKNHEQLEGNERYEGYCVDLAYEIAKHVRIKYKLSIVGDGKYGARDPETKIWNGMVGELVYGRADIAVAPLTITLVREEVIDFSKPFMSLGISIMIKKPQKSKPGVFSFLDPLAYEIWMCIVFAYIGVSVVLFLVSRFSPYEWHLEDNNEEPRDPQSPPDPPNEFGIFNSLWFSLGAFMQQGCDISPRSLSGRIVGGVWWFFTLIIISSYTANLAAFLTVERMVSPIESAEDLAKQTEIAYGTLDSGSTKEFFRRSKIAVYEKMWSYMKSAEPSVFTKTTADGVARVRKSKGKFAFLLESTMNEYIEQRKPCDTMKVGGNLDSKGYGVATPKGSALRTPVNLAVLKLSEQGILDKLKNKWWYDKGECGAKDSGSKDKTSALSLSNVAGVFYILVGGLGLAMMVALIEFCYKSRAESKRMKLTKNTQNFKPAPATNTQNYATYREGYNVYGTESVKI
Description: as §1, §2, §3, §4, §5

[3] = concentration–response fit, read-out: Log IC50 (converted)
[4] = inhibition of whole-cell peak current, concentration–response, Hill fit, read-out: IC50

| SMILES | Amplitude (peak whole-cell current in presence of compound) [1] [pA] | A/AI (amplitude ratio, glutamate alone / with compound) [1] | t deact (weighted deactivation time constant) [1] [ms] | t des (weighted desensitization time constant) [1] [ms] | IC50 [1, 3] [µM] | Amplitude, applying glutamate alone after compound [1] [pA] | IC50 [1, 4] [µM] | Effect on deactivation kinetics (τdeac), in words [1] | Effect on desensitization kinetics (τdes), in words [1] | Amplitude (peak whole-cell current in presence of compound) [2] [pA] | A/AI (amplitude ratio, glutamate alone / with compound) [2] | t deact (weighted deactivation time constant) [2] [ms] | t des (weighted desensitization time constant) [2] [ms] | IC50 [2, 3] [µM] | Amplitude, applying glutamate alone after compound [2] [pA] | IC50 [2, 4] [µM] | Effect on deactivation kinetics (τdeac), in words [2] | Effect on desensitization kinetics (τdes), in words [2] |
| --- | --- | --- | --- | --- | --- | --- | --- | --- | --- | --- | --- | --- | --- | --- | --- | --- | --- | --- |
| Cc1onc(-c2c(Cl)cccc2Cl)c1C(=O)Nc1ccc(C(C)(C)C)cc1 [CIC-12, N-(4-(tert-butyl)phenyl)-3-(2,6-dichlorophenyl)-5-methylisoxazole-4-carboxamide] | 417±47 | 3.04±0.13 | 2.7 ± 0.2 | 2.4 ± 0.1 | 7.59 | 1237±195 | 7.54 | did not elicit statistically significant changes | did not significantly alter desensitization kinetics | 162±36 | 3.01±0.14 | 2.8 ± 0.2 | 2.3 ± 0.1 | 7.59 | 478±127 | 7.5 | did not elicit statistically significant changes | did not significantly alter desensitization kinetics |
| COc1ccc(NC(=O)c2c(-c3c(Cl)cccc3Cl)noc2C)cc1OC [CIC-6, 3-(2,6-dichlorophenyl)-N-(3,4-dimethoxyphenyl)-5-methylisoxazole-4-carboxamide] | 256±19 | 4.84±0.23 | 5.4 ± 0.2 | 1.5 ± 0.1 | 5.75 | 1202±120 | 5.74 | statistically significant prolongation of τdeac | accelerated desensitization, although to a lesser degree | 116±10 | 4.76±0.14 | 5.3 ± 0.3 | 1.6 ± 0.1 | 5.75 | 534±56 | 5.76 | statistically significant prolongation of τdeac | accelerated desensitization, although to a lesser degree |
| COc1cc(NC(=O)c2c(-c3c(Cl)cccc3Cl)noc2C)cc(OC)c1 [CIC-3, 3-(2,6-dichlorophenyl)-N-(3,5-dimethoxyphenyl)-5-methylisoxazole-4-carboxamide] | 223±15 | 5.60±0.27 | 6.3 ± 0.3 | 0.9 ± 0.1 | 4.79 | 1216±119 | 4.82 | statistically significant prolongation of τdeac | significantly accelerated desensitization | 101±10 | 5.50±0.26 | 6.2 ± 0.3 | 0.9 ± 0.1 | 4.9 | 542±66 | 4.92 | statistically significant prolongation of τdeac | significantly accelerated desensitization |
| Cc1onc(-c2c(F)cccc2Cl)c1C(=O)Nc1ccc(OC(F)(F)F)cc1 [CIC-11, 3-(2-chloro-6-fluorophenyl)-5-methyl-N-(4-(trifluoromethoxy)phenyl)isoxazole-4-carboxamide] | 359±28 | 3.53±0.15 | 3.0 ± 0.2 | – | 7.08 | 1233±147 | 7.02 | did not elicit statistically significant changes | did not significantly alter desensitization kinetics | 141±29 | 3.46±0.16 | 2.9 ± 0.2 | 2.3 ± 0.1 | 7.08 | 476±112 | 7.13 | did not elicit statistically significant changes | did not significantly alter desensitization kinetics |
| Cc1onc(-c2c(Cl)cccc2Cl)c1C(=O)Nc1ccc(-c2ccccc2)cc1 [CIC-9, N-([1,1′-biphenyl]-4-yl)-3-(2,6-dichlorophenyl)-5-methylisoxazole-4-carboxamide] | – | 4.10±0.18 | 4.6 ± 0.2 | 2.0 ± 0.1 | 6.31 | 1226±158 | 6.3 | statistically significant prolongation of τdeac | accelerated desensitization, although to a lesser degree | 124±19 | 4.01±0.19 | 4.5 ± 0.3 | 2.0 ± 0.1 | 6.46 | 484±89 | 6.42 | statistically significant prolongation of τdeac | accelerated desensitization, although to a lesser degree |
| Cc1onc(-c2c(Cl)cccc2Cl)c1C(=O)Nc1ccc(OC(F)(F)F)cc1 [CIC-10, 3-(2,6-dichlorophenyl)-5-methyl-N-(4-(trifluoromethoxy)phenyl)isoxazole-4-carboxamide] | 328±35 | 3.90±0.16 | 4.4 ± 0.2 | 2.3 ± 0.1 | 6.46 | 1249±188 | 6.51 | statistically significant prolongation of τdeac | did not significantly alter desensitization kinetics | 128±29 | 3.86±0.18 | 4.3 ± 0.2 | 2.5 ± 0.1 | 6.61 | 482±128 | 6.62 | statistically significant prolongation of τdeac | did not significantly alter desensitization kinetics |

— article PMC11932207, “Regulating AMPA Receptors with Isoxazole-4-Carboxamide Derivatives: An Electrophysiological Study” (Journal of Xenobiotics, 2025)
